Measurements from patent US20230063100A1, “VETERINARY ANTI-PROLACTIN COMPOSITION FOR RUMINANTS USED BY INTRAMAMMARY ADMINISTRATION” (Ceva Santé Animale, priority 2020, published 2023).

Columns and labels:
dairy cow [1] = experiment: Previous IM dose-effect study of cabergoline on milk production reduction (comparative); type: in vivo; details: extrapolation of the dose-effect relationship to an IM dose of 7.5 μg/kg
From the text: The obtained results are the following:

dairy cow [2] = experiment: Inter-teat perimeter (ITP, udder engorgement) at dry-off, IMM study (Example 2); type: in vivo
Method: 10 lactating cows (9 Prim'holstein and 1 Brown Swiss) were included in this study. […] Animal had free access to water and hay throughout the study. Each cow was given 7 kg/day of an antibiotic free concentrate feed for lactating cow until D0 dry off. After dry-off each cow was given 7 kg/day of an antibiotic free concentrate for growing cattle. The composition of concentrate is given hereafter: At D0 dry-off, an abrupt milking cessation was performed. The inter-teat perimeter (ITP) was considered as a proxy of udder volume and engorgement, and was measured before treatment udder, both before and after milking, and then evenly after treatment until 9 days post-treatment.

[3] = Blood calcium concentration after IM cabergoline 5.6 mg/cow (previous studies); type: in vivo; details: versus negative control group
Method: Said studies were conducted in comparison versus a negative control group, and blood calcium decrease was monitored and well identified: A calcium decrease was observed as soon as 2 to 3 hours post-treatment, maximal between 6 and 12 hours and return to normal after 24 hours.
It is important to note that, in the study of example 2, the benefit regarding a less decrease of blood calcium concentration was obtained, despite a less quantity of calcium supplied by food, when compared to the IM studies 1 and 2. In these last 2 IM studies, 150 g of calcium/day/cow was provided through a total or partial mixed ration, whereas in the IMM study of example 2 only 50 g of calcium was provided via the concentrate (7 kg/day/cow at 0.7% of Ca) and a remaining part via the hay given ad libidum. Although the exact quantity of Ca provided by the hay was unknown, it was surely less than in the 2 IM studies, because, • i) the content of calcium in the hay is generally lower than concentrates, usually around 0.3% • ii) the actual hay dry matter intake could be estimated around 13 to 15 kg for the cows included in example 2

[4] = tested on: Prim'holstein lactating cows; experiment: Cabergoline effect by intramammary (IMM) route on milk production, milking continuation context (Example 1); type: in vivo; details: IMM 1.34 mg/quarter in all 4 quarters (5.4 mg/cow, ~7.5 μg/kg) after evening milking D4; n=5; printed as minus 6 L
Method: The cabergoline composition is a solution comprising cabergoline with dimethyl sulfoxide and medium-chain triglycerides, as excipients.
5 Prim'holstein lactating cows were included in the study, with the following characteristics: • Multiparous: parity 2 to 4 • Daily milk yield (L): 17.4+/−2.8 • Days in milk (d): 251+/−51 • Body weight (kg): 686+/−29
Cabergoline was administered as an oily solution as described above, with an intramammary cannula inserted into the teat canal and fitted to the tip of a syringe containing the solution. A volume of 10 mL was directly deposited into the udder cistern of each quarter.
Cows were milked twice a day, morning and evening, at around 07 am and 05 pm respectively.
Milk production (morning milking) was measured during the days before (baseline) and after treatment.
The 5 cows were treated with a dose 1.34 mg/quarter in all 4 quarters (total dose 5.4 mg/cow, corresponding to ˜7.5 μg/kg when expressed according to kg body weight, after evening milking (D4), i.e. 15-20 minutes after the end of milking.

[5] = Pharmacokinetics of cabergoline in plasma after IM administration, 5.6 mg/cow (comparative study); type: in vivo; details: bovine, n=6, plasma
[6] = Pharmacokinetics of cabergoline in plasma after IMM administration (Example 2.2); type: in vivo, cow; details: female, Prim'holstein and Brown Swiss, bovine, 5.4 mg/udder, n=5, plasma
From the text: (§1) 10 lactating cows (9 Prim'holstein and 1 Brown Swiss) were included in this study.

[7] = Blood calcium concentration after IMM cabergoline at dry-off (Example 2.3); type: in vivo, cow
From the text: as §1
No feed restriction was put in place within the 3 weeks preceding the D0 dry-off and after. Animal had free access to water and hay throughout the study. Each cow was given 7 kg/day of an antibiotic free concentrate feed for lactating cow until D0 dry off. After dry-off each cow was given 7 kg/day of an antibiotic free concentrate for growing cattle.

dairy cow [8] = experiment: Field-controlled study (n=106), IM route, decrease of milk production; type: in vivo
Method: Extrapolation of the dose-effect relationship, with an IM dose of 7.5 μg/kg gave a predicted effect on milk production reduction of −43%.

dairy cow [9] = experiment: Delta ITP at dry-off, IM study with the same total dose (comparative); type: in vivo; details: same total dose by IM route, n=130

With `C=CCN1C[C@H](C(=O)N(CCCN(C)C)C(=O)NCC)C[C@@H]2c3cccc4[nH]cc(c34)C[C@H]21` [cabergoline, N-[3-(dimethylamino)propyl]-N-[(ethylamino)carbonyl]-6-(2-propenyl)-8g-ergoline-8-carboxamide] the “predicted effect on milk production reduction” value (dairy cow [1]) was −43%, the “ITP of treated cows versus control after dry-off” value (dairy cow [2]; IMM 1.34 mg/quarter in all 4 quarters, first 48 hours after treatment, FIG. 2) was “increased less than control” and the “Mean ΔITP at +24 h after treatment” value (dairy cow [2]; IMM study, 1.34 mg/quarter in all 4 quarters at D0 dry-off, n=5) was 8.3 cm. The “Mean ΔITP before/after milking, before treatment” value (dairy cow [2]; IMM study, cabergoline group n=5, baseline before treatment) was 13.1 cm, the “time of return of blood calcium to normal” value [3] was greater than 24 h and the “drop of milk production at the next morning milking (D5), mean” value [4] was 6 L. It also gave an AUC ([5]; read-out: AUCo-inf, mean (sd)) of 2.49 ng·h/mL, a Cmax ([5]; read-out: Cmax, mean (sd)) of 0.15 ng/mL and an MRT ([5]; read-out: MRT, mean (sd)) of 22.7 h. For the same molecule, the Tmax ([5]; read-out: Tmax, mean (sd)) was 3 h, the AUC ([6]; read-out: AUCo-inf, mean (sd)) was 4.75 ng·h/mL and the Cmax ([6]; read-out: Cmax, mean (sd)) was 0.114 ng/mL. The MRT ([6]; read-out: MRT, mean (sd)) was 36.3 h, the Tmax ([6]; read-out: Tmax, mean (sd)) was 8.4 h and the “decrease of blood calcium concentration in comparison with control cows, mean” value ([7]; IMM 1.34 mg/quarter in all 4 quarters, +6 hours time point only) was -0.2 mmol/L. The “blood calcium concentration change at other time points” value ([7]; IMM, +3 h, +12 h, +24 h and onward) was “No decrease”, the “decrease of milk production, treated against negative controlled cows” value (dairy cow [8]) was “around −40%” and the “Mean ΔITP at +24 h after treatment” value (dairy cow [9]) was 9.2 cm.
